Results from PubChem BioAssay (NCI).
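Method: 48-hour compound exposure of cells in 96-well plates, five concentrations, linear interpolation of endpoints. TGI: concentration producing complete growth inhibition.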

How the values were obtained:
Experiment in all cases: NCI anticancer screen, dose series, 48 h
UACC-62 melanoma = tested on: UACC-62 melanoma
HOP-92 NSCLC = tested on: HOP-92 NSCLC
SK-OV-3 ovarian = tested on: SK-OV-3 ovarian
PC-3 prostate = tested on: PC-3 prostate
HL-60(TB) leukemia = tested on: HL-60(TB) leukemia
SK-MEL-5 melanoma = tested on: SK-MEL-5 melanoma
BT-549 breast = tested on: BT-549 breast
DU-145 prostate = tested on: DU-145 prostate
OVCAR-4 ovarian = tested on: OVCAR-4 ovarian
UO-31 renal = tested on: UO-31 renal
HT29 colon = tested on: HT29 colon
IGROV1 ovarian = tested on: IGROV1 ovarian
786-0 renal = tested on: 786-0 renal
MDA-MB-231 breast = tested on: MDA-MB-231 breast
SF-295 CNS = tested on: SF-295 CNS
SN12C renal = tested on: SN12C renal
ACHN renal = tested on: ACHN renal
MDA-N = tested on: MDA-N
HCT-15 colon = tested on: HCT-15 colon
SF-539 CNS = tested on: SF-539 CNS
U251 CNS = tested on: U251 CNS
RXF 393 renal = tested on: RXF 393 renal
MCF7 breast = tested on: MCF7 breast
HCT-116 colon = tested on: HCT-116 colon
OVCAR-8 ovarian = tested on: OVCAR-8 ovarian
SK-MEL-28 melanoma = tested on: SK-MEL-28 melanoma
HCC-2998 colon = tested on: HCC-2998 colon
EKVX NSCLC = tested on: EKVX NSCLC
NCI-H460 lung = tested on: NCI-H460 lung
NCI-H23 lung = tested on: NCI-H23 lung
T-47D breast = tested on: T-47D breast
CCRF-CEM leukemia = tested on: CCRF-CEM leukemia
OVCAR-3 ovarian = tested on: OVCAR-3 ovarian
CAKI-1 renal = tested on: CAKI-1 renal
M14 melanoma = tested on: M14 melanoma
TK-10 renal = tested on: TK-10 renal
SW-620 colon = tested on: SW-620 colon
K-562 leukemia = tested on: K-562 leukemia
LOX IMVI melanoma = tested on: LOX IMVI melanoma
NCI-H226 lung = tested on: NCI-H226 lung
SK-MEL-2 melanoma = tested on: SK-MEL-2 melanoma
COLO 205 colon = tested on: COLO 205 colon
OVCAR-5 ovarian = tested on: OVCAR-5 ovarian
NCI/ADR-RES ovarian = tested on: NCI/ADR-RES ovarian
MALME-3M melanoma = tested on: MALME-3M melanoma
SNB-19 CNS = tested on: SNB-19 CNS
A498 renal = tested on: A498 renal
MOLT-4 leukemia = tested on: MOLT-4 leukemia
A549 NSCLC = tested on: A549 NSCLC
UACC-257 melanoma = tested on: UACC-257 melanoma
SR leukemia = tested on: SR leukemia
MDA-MB-435 = tested on: MDA-MB-435
KM12 colon = tested on: KM12 colon
RPMI-8226 leukemia = tested on: RPMI-8226 leukemia
NCI-H522 lung = tested on: NCI-H522 lung
SNB-75 CNS = tested on: SNB-75 CNS
SF-268 CNS = tested on: SF-268 CNS
HOP-62 NSCLC = tested on: HOP-62 NSCLC

CC(=O)OCc1cc(=O)n2c([nH]c3ccccc32)c1C#N
TGI (UACC-62 melanoma): > 100 µM
TGI (HOP-92 NSCLC): > 100 µM
TGI (SK-OV-3 ovarian): > 100 µM
TGI (PC-3 prostate): > 100 µM
TGI (HL-60(TB) leukemia): > 100 µM
TGI (SK-MEL-5 melanoma): > 100 µM
TGI (BT-549 breast): > 100 µM
TGI (DU-145 prostate): > 100 µM
TGI (OVCAR-4 ovarian): 60.9 µM
TGI (UO-31 renal): > 100 µM
TGI (HT29 colon): > 100 µM
TGI (IGROV1 ovarian): > 100 µM
TGI (786-0 renal): > 100 µM
TGI (MDA-MB-231 breast): > 100 µM
TGI (SF-295 CNS): > 100 µM
TGI (SN12C renal): > 100 µM
TGI (ACHN renal): > 100 µM
TGI (MDA-N): > 100 µM
TGI (HCT-15 colon): > 100 µM
TGI (SF-539 CNS): > 100 µM
TGI (U251 CNS): > 100 µM
TGI (RXF 393 renal): > 100 µM
TGI (MCF7 breast): > 100 µM
TGI (HCT-116 colon): > 100 µM
TGI (OVCAR-8 ovarian): > 100 µM
TGI (SK-MEL-28 melanoma): > 100 µM
TGI (HCC-2998 colon): > 100 µM
TGI (EKVX NSCLC): > 100 µM
TGI (NCI-H460 lung): 64.8 µM
TGI (NCI-H23 lung): > 100 µM
TGI (T-47D breast): > 100 µM
TGI (CCRF-CEM leukemia): > 100 µM
TGI (OVCAR-3 ovarian): > 100 µM
TGI (CAKI-1 renal): > 100 µM
TGI (M14 melanoma): > 100 µM
TGI (TK-10 renal): > 100 µM
TGI (SW-620 colon): > 100 µM
TGI (K-562 leukemia): > 100 µM
TGI (LOX IMVI melanoma): > 100 µM
TGI (NCI-H226 lung): > 100 µM
TGI (SK-MEL-2 melanoma): > 100 µM
TGI (COLO 205 colon): > 100 µM
TGI (OVCAR-5 ovarian): > 100 µM
TGI (NCI/ADR-RES ovarian): > 100 µM
TGI (MALME-3M melanoma): > 100 µM
TGI (SNB-19 CNS): > 100 µM
TGI (A498 renal): > 100 µM
TGI (MOLT-4 leukemia): > 100 µM
TGI (A549 NSCLC): > 100 µM
TGI (UACC-257 melanoma): > 100 µM

CC1(C)OCC(C2OC(OC(=O)c3ccc(C(F)(F)F)cc3)C3OC(C)(C)OC23)O1 (centres undefined)
TGI (UACC-62 melanoma): > 77.5 µM
TGI (SK-OV-3 ovarian): > 77.5 µM
TGI (PC-3 prostate): > 77.5 µM
TGI (SR leukemia): > 77.5 µM
TGI (SK-MEL-5 melanoma): > 77.5 µM
TGI (BT-549 breast): > 77.5 µM
TGI (DU-145 prostate): > 77.5 µM
TGI (OVCAR-4 ovarian): > 77.5 µM
TGI (UO-31 renal): > 77.5 µM
TGI (HT29 colon): > 77.5 µM
TGI (IGROV1 ovarian): > 77.5 µM
TGI (786-0 renal): > 77.5 µM
TGI (MDA-MB-231 breast): > 77.5 µM
TGI (SF-295 CNS): > 77.5 µM
TGI (SN12C renal): > 77.5 µM
TGI (ACHN renal): > 77.5 µM
TGI (MDA-N): > 77.5 µM
TGI (HCT-15 colon): > 77.5 µM
TGI (SF-539 CNS): > 77.5 µM
TGI (U251 CNS): > 77.5 µM
TGI (RXF 393 renal): > 77.5 µM
TGI (MCF7 breast): > 77.5 µM
TGI (HCT-116 colon): > 77.5 µM
TGI (OVCAR-8 ovarian): > 77.5 µM
TGI (MDA-MB-435): > 77.5 µM
TGI (SK-MEL-28 melanoma): > 77.5 µM
TGI (HCC-2998 colon): > 77.5 µM
TGI (EKVX NSCLC): > 77.5 µM
TGI (KM12 colon): > 77.5 µM
TGI (RPMI-8226 leukemia): > 77.5 µM
TGI (NCI-H522 lung): > 77.5 µM
TGI (NCI-H460 lung): > 77.5 µM
TGI (NCI-H23 lung): > 77.5 µM
TGI (CCRF-CEM leukemia): > 77.5 µM
TGI (OVCAR-3 ovarian): > 77.5 µM
TGI (CAKI-1 renal): > 77.5 µM
TGI (M14 melanoma): > 77.5 µM
TGI (SNB-75 CNS): > 77.5 µM
TGI (TK-10 renal): > 77.5 µM
TGI (SW-620 colon): > 77.5 µM
TGI (K-562 leukemia): > 77.5 µM
TGI (SF-268 CNS): > 77.5 µM
TGI (LOX IMVI melanoma): > 77.5 µM
TGI (NCI-H226 lung): > 77.5 µM
TGI (SK-MEL-2 melanoma): > 77.5 µM
TGI (COLO 205 colon): > 77.5 µM
TGI (OVCAR-5 ovarian): > 77.5 µM
TGI (NCI/ADR-RES ovarian): > 77.5 µM
TGI (MALME-3M melanoma): > 77.5 µM
TGI (HOP-62 NSCLC): > 77.5 µM
TGI (SNB-19 CNS): > 77.5 µM
TGI (A498 renal): > 77.5 µM
TGI (MOLT-4 leukemia): > 77.5 µM
TGI (A549 NSCLC): > 77.5 µM
TGI (UACC-257 melanoma): > 77.5 µM

CC(CO)CCC(O)C(C)(O)C1CCC2(O)C3=CC(=O)C4CC(O)C(O)CC4(C)C3CCC12C (centres undefined)
TGI (UACC-62 melanoma): > 100 µM
TGI (HOP-92 NSCLC): > 100 µM
TGI (SK-OV-3 ovarian): > 100 µM
TGI (PC-3 prostate): > 100 µM
TGI (HL-60(TB) leukemia): > 100 µM
TGI (SR leukemia): > 100 µM
TGI (SK-MEL-5 melanoma): > 100 µM
TGI (BT-549 breast): > 100 µM
TGI (DU-145 prostate): > 100 µM
TGI (OVCAR-4 ovarian): > 100 µM
TGI (UO-31 renal): > 100 µM
TGI (HT29 colon): > 100 µM
TGI (786-0 renal): > 100 µM
TGI (MDA-MB-231 breast): > 100 µM
TGI (SF-295 CNS): > 100 µM
TGI (SN12C renal): > 100 µM
TGI (ACHN renal): > 100 µM
TGI (MDA-N): > 100 µM
TGI (HCT-15 colon): > 100 µM
TGI (SF-539 CNS): > 100 µM
TGI (U251 CNS): > 100 µM
TGI (RXF 393 renal): > 100 µM
TGI (MCF7 breast): > 100 µM
TGI (HCT-116 colon): > 100 µM
TGI (OVCAR-8 ovarian): > 100 µM
TGI (MDA-MB-435): > 100 µM
TGI (SK-MEL-28 melanoma): > 100 µM
TGI (HCC-2998 colon): > 100 µM
TGI (EKVX NSCLC): > 100 µM
TGI (KM12 colon): > 100 µM
TGI (RPMI-8226 leukemia): > 100 µM
TGI (NCI-H522 lung): > 100 µM
TGI (NCI-H460 lung): > 100 µM
TGI (NCI-H23 lung): > 100 µM
TGI (CCRF-CEM leukemia): > 100 µM
TGI (OVCAR-3 ovarian): > 100 µM
TGI (CAKI-1 renal): > 100 µM
TGI (M14 melanoma): > 100 µM
TGI (SNB-75 CNS): > 100 µM
TGI (SW-620 colon): > 100 µM
TGI (K-562 leukemia): > 100 µM
TGI (LOX IMVI melanoma): > 100 µM
TGI (NCI-H226 lung): > 100 µM
TGI (SK-MEL-2 melanoma): > 100 µM
TGI (COLO 205 colon): > 100 µM
TGI (OVCAR-5 ovarian): > 100 µM
TGI (NCI/ADR-RES ovarian): > 100 µM
TGI (MALME-3M melanoma): > 100 µM
TGI (HOP-62 NSCLC): > 100 µM
TGI (SNB-19 CNS): > 100 µM
TGI (A498 renal): > 100 µM
TGI (MOLT-4 leukemia): > 100 µM
TGI (A549 NSCLC): > 100 µM
TGI (UACC-257 melanoma): > 100 µM
